Data: the supplement of paper PMC10307832

Experiments:
Assay in all cases: relative viability (nuclei count vs DMSO), 5 days (fraction); higher = more cells survive
HCC-366 = test system: HCC-366
Method in brief: (§1)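 Lung cancer cell lines, seeded in 1536-well plates, were treated the following day by pin tool with a single drug or with five library-drug doses (not always all listed) in √10 steps on top of a fixed anchor-drug dose. Cells were fixed and nuclei stained in one step after 5 days, and nuclei were counted. Relative viability is the nuclei count for treated wells divided by that for vehicle wells, reported as medians of duplicate plates.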

A549 = test system: A549
Method in brief: as §1

NCI-H1437 = test system: NCI-H1437
Method in brief: as §1

EBC-1 = test system: EBC-1
Method in brief: as §1

Calu-6 = test system: Calu-6
Method in brief: as §1

IA-LM = test system: IA-LM
Method in brief: as §1

NCI-H1299 = test system: NCI-H1299
Method in brief: as §1

HCC-44 = test system: HCC-44
Method in brief: as §1

NCI-H1703 = test system: NCI-H1703
Method in brief: as §1

## C=C1C(=O)O[C@@H](CCCCCCCC)[C@@H]1C(=O)O [C-75] + C[C@]1(O)C[C@@H](c2nc(-c3ccc4ccc(-c5ccccc5)nc4c3)c3c(N)nccn32)C1 [Linsitinib] (partner 1 µM)
HCC-366; first compound 0.08 µM
  relative viability: 0.629
HCC-366; first compound 0.253 µM
  relative viability: 0.645
HCC-366; first compound 0.8 µM
  relative viability: 0.558
HCC-366; first compound 8 µM
  relative viability: 0.258
A549; first compound 0.08 µM
  relative viability: 0.526
A549; first compound 0.253 µM
  relative viability: 0.753
A549; first compound 0.8 µM
  relative viability: 0.549
A549; first compound 2.53 µM
  relative viability: 0.37
A549; first compound 8 µM
  relative viability: 0.628
NCI-H1437; first compound 0.08 µM
  relative viability: 1.03
NCI-H1437; first compound 0.253 µM
  relative viability: 1
NCI-H1437; first compound 0.8 µM
  relative viability: 1.04
NCI-H1437; first compound 2.53 µM
  relative viability: 1.01
NCI-H1437; first compound 8 µM
  relative viability: 1.04
EBC-1; first compound 0.08 µM
  relative viability: 0.878
EBC-1; first compound 0.253 µM
  relative viability: 1.05
EBC-1; first compound 0.8 µM
  relative viability: 0.82
EBC-1; first compound 2.53 µM
  relative viability: 0.821
EBC-1; first compound 8 µM
  relative viability: 0.734
Calu-6; first compound 0.08 µM
  relative viability: 0.902
Calu-6; first compound 0.253 µM
  relative viability: 0.941
Calu-6; first compound 0.8 µM
  relative viability: 0.905
Calu-6; first compound 2.53 µM
  relative viability: 0.916
Calu-6; first compound 8 µM
  relative viability: 0.724
IA-LM; first compound 0.08 µM
  relative viability: 0.682
IA-LM; first compound 0.253 µM
  relative viability: 0.644
IA-LM; first compound 0.8 µM
  relative viability: 0.53
IA-LM; first compound 2.53 µM
  relative viability: 0.556
IA-LM; first compound 8 µM
  relative viability: 0.53
NCI-H1299; first compound 0.08 µM
  relative viability: 1.01
NCI-H1299; first compound 0.253 µM
  relative viability: 0.908
NCI-H1299; first compound 0.8 µM
  relative viability: 1.05
NCI-H1299; first compound 2.53 µM
  relative viability: 0.814
NCI-H1299; first compound 8 µM
  relative viability: 1.06
HCC-44; first compound 0.08 µM
  relative viability: 0.598
HCC-44; first compound 0.253 µM
  relative viability: 0.633
HCC-44; first compound 0.8 µM
  relative viability: 0.618
HCC-44; first compound 2.53 µM
  relative viability: 0.453
HCC-44; first compound 8 µM
  relative viability: 0.667
NCI-H1703; first compound 0.08 µM
  relative viability: 0.752
NCI-H1703; first compound 0.253 µM
  relative viability: 0.591
NCI-H1703; first compound 0.8 µM
  relative viability: 0.672
NCI-H1703; first compound 2.53 µM
  relative viability: 0.457
NCI-H1703; first compound 8 µM
  relative viability: 0.632

## C=C1C(=O)O[C@@H](CCCCCCCC)[C@@H]1C(=O)O [C-75] + Cc1nc(NC(=O)N2CCC[C@H]2C(N)=O)sc1-c1ccnc(C(C)(C)C(F)(F)F)c1 [Alpelisib] (partner 2 µM)
HCC-366; first compound 0.08 µM
  relative viability: 0.502
HCC-366; first compound 0.253 µM
  relative viability: 0.48
HCC-366; first compound 0.8 µM
  relative viability: 0.381
HCC-366; first compound 8 µM
  relative viability: 0.404
A549; first compound 0.08 µM
  relative viability: 0.828
A549; first compound 0.253 µM
  relative viability: 0.909
A549; first compound 0.8 µM
  relative viability: 0.824
A549; first compound 2.53 µM
  relative viability: 0.579
A549; first compound 8 µM
  relative viability: 0.716
NCI-H1437; first compound 0.08 µM
  relative viability: 0.942
NCI-H1437; first compound 0.253 µM
  relative viability: 0.969
NCI-H1437; first compound 0.8 µM
  relative viability: 1.01
NCI-H1437; first compound 2.53 µM
  relative viability: 0.961
NCI-H1437; first compound 8 µM
  relative viability: 1.07
EBC-1; first compound 0.08 µM
  relative viability: 0.904
EBC-1; first compound 0.253 µM
  relative viability: 0.763
EBC-1; first compound 0.8 µM
  relative viability: 0.792
EBC-1; first compound 2.53 µM
  relative viability: 0.7
EBC-1; first compound 8 µM
  relative viability: 0.712
Calu-6; first compound 0.08 µM
  relative viability: 1.04
Calu-6; first compound 0.253 µM
  relative viability: 0.926
Calu-6; first compound 0.8 µM
  relative viability: 0.983
Calu-6; first compound 2.53 µM
  relative viability: 0.796
Calu-6; first compound 8 µM
  relative viability: 0.932
IA-LM; first compound 0.08 µM
  relative viability: 0.71
IA-LM; first compound 0.253 µM
  relative viability: 0.815
IA-LM; first compound 0.8 µM
  relative viability: 0.74
IA-LM; first compound 2.53 µM
  relative viability: 0.648
IA-LM; first compound 8 µM
  relative viability: 0.761
NCI-H1299; first compound 0.08 µM
  relative viability: 1.04
NCI-H1299; first compound 0.253 µM
  relative viability: 0.979
NCI-H1299; first compound 0.8 µM
  relative viability: 1.1
NCI-H1299; first compound 2.53 µM
  relative viability: 0.966
NCI-H1299; first compound 8 µM
  relative viability: 1.07
HCC-44; first compound 0.08 µM
  relative viability: 0.742
HCC-44; first compound 0.253 µM
  relative viability: 0.674
HCC-44; first compound 0.8 µM
  relative viability: 0.719
HCC-44; first compound 2.53 µM
  relative viability: 0.614
HCC-44; first compound 8 µM
  relative viability: 0.719
NCI-H1703; first compound 0.08 µM
  relative viability: 0.337
NCI-H1703; first compound 0.253 µM
  relative viability: 0.348
NCI-H1703; first compound 0.8 µM
  relative viability: 0.325
NCI-H1703; first compound 2.53 µM
  relative viability: 0.28
NCI-H1703; first compound 8 µM
  relative viability: 0.327

## CC1(C)CCC(c2ccc(Cl)cc2)=C(CN2CCN(c3ccc(C(=O)NS(=O)(=O)c4ccc(N[C@H](CCN5CCOCC5)CSc5ccccc5)c(S(=O)(=O)C(F)(F)F)c4)cc3)CC2)C1 [Navitoclax] + CS(=O)(=O)CCNCc1ccc(-c2ccc3ncnc(Nc4ccc(OCc5cccc(F)c5)c(Cl)c4)c3c2)o1 [Lapatinib] (partner 2 µM)
HCC-366; first compound 0.005 µM
  relative viability: 1
HCC-366; first compound 0.01581 µM
  relative viability: 1.16
HCC-366; first compound 0.05 µM
  relative viability: 0.348
HCC-366; first compound 0.1581 µM
  relative viability: 1.04
HCC-366; first compound 0.5 µM
  relative viability: 1.08
A549; first compound 0.005 µM
  relative viability: 1.06
A549; first compound 0.01581 µM
  relative viability: 1.02
A549; first compound 0.05 µM
  relative viability: 1.07
A549; first compound 0.1581 µM
  relative viability: 0.945
A549; first compound 0.5 µM
  relative viability: 0.949
NCI-H1437; first compound 0.005 µM
  relative viability: 0.729
NCI-H1437; first compound 0.01581 µM
  relative viability: 0.759
NCI-H1437; first compound 0.05 µM
  relative viability: 0.822
NCI-H1437; first compound 0.1581 µM
  relative viability: 0.819
NCI-H1437; first compound 0.5 µM
  relative viability: 0.831
EBC-1; first compound 0.005 µM
  relative viability: 0.181
EBC-1; first compound 0.01581 µM
  relative viability: 0.2
EBC-1; first compound 0.05 µM
  relative viability: 0.193
EBC-1; first compound 0.1581 µM
  relative viability: 0.245
EBC-1; first compound 0.5 µM
  relative viability: 0.212
Calu-6; first compound 0.005 µM
  relative viability: 1.14
Calu-6; first compound 0.01581 µM
  relative viability: 1.13
Calu-6; first compound 0.05 µM
  relative viability: 1.05
Calu-6; first compound 0.1581 µM
  relative viability: 1.04
Calu-6; first compound 0.5 µM
  relative viability: 1.01
IA-LM; first compound 0.005 µM
  relative viability: 0.659
IA-LM; first compound 0.01581 µM
  relative viability: 1.16
IA-LM; first compound 0.05 µM
  relative viability: 1.06
IA-LM; first compound 0.1581 µM
  relative viability: 1.02
IA-LM; first compound 0.5 µM
  relative viability: 0.903
NCI-H1299; first compound 0.005 µM
  relative viability: 0.931
NCI-H1299; first compound 0.01581 µM
  relative viability: 0.956
NCI-H1299; first compound 0.05 µM
  relative viability: 1
NCI-H1299; first compound 0.1581 µM
  relative viability: 0.979
NCI-H1299; first compound 0.5 µM
  relative viability: 1
HCC-44; first compound 0.005 µM
  relative viability: 0.888
HCC-44; first compound 0.01581 µM
  relative viability: 1.03
HCC-44; first compound 0.05 µM
  relative viability: 0.996
HCC-44; first compound 0.1581 µM
  relative viability: 0.971
HCC-44; first compound 0.5 µM
  relative viability: 1.04
NCI-H1703; first compound 0.005 µM
  relative viability: 0.928
NCI-H1703; first compound 0.01581 µM
  relative viability: 1.18
NCI-H1703; first compound 0.05 µM
  relative viability: 1.34
NCI-H1703; first compound 0.1581 µM
  relative viability: 1.27
NCI-H1703; first compound 0.5 µM
  relative viability: 1.01
